Read-outs that look alike come from different tables or passages of the source.
Key:
[1] = Pharmacokinetic investigation in mice (PO and IP); assay type: in vivo, mice of BALB/c line; details: BALB/c, mouse, plasma; for half-life: read-out: T½
Protocol: Pharmacokinetic investigations were carried out on mice of BALB/c line. All animals were divided into three groups in a random manner: two experimental groups were used for pharmacokinetic analyses at peroral (PO) and intraperitoneal (IP) ways of substance introduction in various doses, and the control group for getting intact blood plasma.
Blood samples were taken by decapitation of animals before introduction of medicament (control samples), and by decapitation in 5, 15, 30, 60, 120 and 240 minutes after introduction of medicament. Three mice were used for each time interval point.
Analysis of samples comprising compounds of the general formulas I-VIII was carried out by Chromato-Mass-Spectrometry method. The data were analysed by means of software package WinNonLin (Pharsight, CIIIA).
Oral bioavailability % F of compounds of the general formulas I-VIII was calculated on the basis of experimental results according to the following equation: % F=[AUC0→t,(PO)/AUC0→t,(IP)]×100%.

[2] = Pharmacokinetic investigation in mice (PO and IP); assay type: in vivo, mice of BALB/c line; details: BALB/c, mouse, plasma, read-out: % F (PO/IV)
[3] = Maximum tolerated dose, intraperitoneal once daily for 5 days; details: mouse, in vivo, ip, male SHK mice
Protocol: Maximum tolerated dose of compounds was determined in tests on male mice of SHK line by intraperitoneal once daily introduction of the compounds in doses from 30 to 300 mg/kg during 5 days. 8 Mice were used in each group. Weight of mice and also animals' mortality were registered. […] According to the classification of chemical compounds toxicity the investigated compounds may be referred to low-toxic substances.

Hh-signalling cascade = assay: Inhibition of SHh-induced alkaline phosphatase in C3H10T1/2 cells (Hh-signalling cascade inhibition); assay type: cell-based; details: Mus musculus, C3H 10T1/2, half maximal inhibition of SHh (0.3 μg/ml) stimulation of cell alkaline phosphatase
In short: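 C3H10T1/2 cells preincubated 30 min with compound (screen at 10 μM; IC50 from triplicate dilution series), then stimulated with 0.3 μg/ml recombinant SHh for 3 days at 37 °C. Alkaline phosphatase measured by CSPD luminescence in 0.2% Triton-X100 lysates; IC50 = half-maximal inhibition of SHh-induced activity.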

[4] = system: transcription factor Gli1; assay: Suppression of transcription factor Gli1 induction in Panc1 cell culture; assay type: cell-based, human; details: 20 mkM, 72 hours, Panc1 cells
Protocol: Examples of suppression of the transcription factor Gli1 induction in human's tumor cell culture Panc1 by compounds of the general formulas I-VIII are presented in FIG. 2. […] This effect could be enhanced at combined action of the tested compound and kinas inhibitor (oncolitic Iressa). For caning out the experiments the tumour cell culture Panc1 was cultivated for 72 hours in the presence of 20 mkM of tested compounds.
Measurements of expression level Gli1 were carried out by determination of HGli mRNA amount according to the method [Lauth M., Bergstrom A., Shimokawa T., Toftgard R. Inhibition of GLI-mediated transcription and tumor cell growth by small-molecule antagonists. PNAS. 2007, 104(20): 8455-8460].

[5] = system: human's pancreatic carcinoma Panc1; assay: Antitumour activity in Panc1 xenograft mice model; assay type: in vivo, mice Balb-c/nude
Protocol: Example of antitumour activity of compound III-1029 towards human's pancreatic carcinoma model Panc1, implanted to immunodeficient transgenic (naked) mice Balb-c/nude, is presented in FIG. 3. Mice of 8 weeks age which were implanted with pancreatic carcinoma by injection of 4×10^6 tumour cells were used in the experiments. Introduction of tested compound (peroral 50 mg/kg, daily during 14 days) was started in 7 days after transplantation of tumour (an average size of tumour was 30-60 mm^3). As a result of the tests it was shown that under the said way of introduction compound III-1029 suppresses tumour growth on 67% in comparison with the control group (mice with implanted tumour not treated with compound III-1029).
Example of antitumour activity of compounds III-1017 and III-1011 towards human's pancreatic carcinoma Panc1, implanted to immunodeficient transgenic (naked) mice Balb-c/nude, is presented in FIG. 4. Mice of 8 weeks age which were implanted with pancreatic carcinoma by injection of 4×10^7 tumour cells were used in the experiments. Introduction of tested compound (intraperitoneally […], daily during 21 days) was started in 8 days after transplantation of tumour (an average size of tumour is 60-140 mm^3). As a result of the tests it was shown that under the said way of introduction compounds III-1017 and III-1011 suppress tumour growth on 27 and 46% in comparison with the control group (mice with implanted tumour not treated with the tested compounds).

Smo receptors = target: T1, Smo receptors (Homo sapiens, UniProt Q99835); assay: Displacement of bodipy-cyclopamine from Smo receptors in Smo-HEK cells; assay type: binding; details: half-maximal displacement of bodipy-cyclopamine
T1 construct: expressed in transfected cells; host or cells: HEK cells (Smo-HEK)
Protocol: Binding parameters to Smo receptors for some of compounds of the general formulas I-VIII are presented in table 11 as the values of half-maximal displacement of cyclopamine labelled with fluorescent dye (bodipy-cyclopamine). The tests were carried out for Smo-HEK cells, comprising artificially expressed protein Smo.

[6] = intraperitoneally 100 m mg/kg, daily during 21 days

T1 sequence (Q99835 28-787): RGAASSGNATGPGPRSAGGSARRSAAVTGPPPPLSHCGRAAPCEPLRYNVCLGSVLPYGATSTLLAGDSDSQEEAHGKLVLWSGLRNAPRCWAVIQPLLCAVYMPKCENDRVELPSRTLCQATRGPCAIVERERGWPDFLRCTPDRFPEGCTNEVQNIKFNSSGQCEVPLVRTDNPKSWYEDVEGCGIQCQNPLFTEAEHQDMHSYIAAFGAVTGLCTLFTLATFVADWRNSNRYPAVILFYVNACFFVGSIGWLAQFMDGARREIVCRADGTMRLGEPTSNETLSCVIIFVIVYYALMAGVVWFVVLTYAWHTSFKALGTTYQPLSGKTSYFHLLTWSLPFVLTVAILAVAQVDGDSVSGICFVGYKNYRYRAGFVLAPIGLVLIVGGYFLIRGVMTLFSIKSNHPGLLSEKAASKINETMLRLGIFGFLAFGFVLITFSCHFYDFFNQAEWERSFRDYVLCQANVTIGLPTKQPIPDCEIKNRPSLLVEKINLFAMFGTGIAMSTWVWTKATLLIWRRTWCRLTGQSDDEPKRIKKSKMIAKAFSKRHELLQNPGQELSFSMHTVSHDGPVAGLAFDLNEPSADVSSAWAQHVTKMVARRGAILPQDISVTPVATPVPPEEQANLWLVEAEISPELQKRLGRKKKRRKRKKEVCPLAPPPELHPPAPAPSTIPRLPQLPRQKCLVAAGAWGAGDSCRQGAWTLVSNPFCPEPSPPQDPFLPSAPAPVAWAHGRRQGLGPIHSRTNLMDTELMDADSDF

Row | Compound | bioavailability [2] | MTD at 5 days [3] | IC50 (Hh-signalling cascade) | melting point | further results
1 | COc1cccc(N2CCN(C(=O)Cn3nc(C)c4c(C)n(-c5ccccc5)nc4c3=O)CC2)c1 [I-1001, 2-Phenyl-3,4-dimethyl-6-{2-[4-(3-methoxyphenyl)piperazin-1-yl]-2-oxoethyl}-2,6-dihydro-7H-pyrazolo[3,4-d]pyridazin-7-one] | 35% | > 200 mg/kg | < 500 nM |  | half-life ([1]; PO, 5 mg/Kg): 125 min; Cmax ([1]; PO, 20 mg/Kg): 4460 ng/mL; Suppression of Gli1 expression (HGli mRNA) [4]: block effectively Hh-signalling cascade
2 | Cc1cccn2cc(-c3ccc(NC(=O)c4ccccc4F)cc3)nc12 [III-1011, 2-Fluoro-N-[4-(8-methylimidazo[1,2-a]pyridin-2-yl)phenyl]benzamide] | 64% | > 200 mg/kg |  |  | Suppression of tumour growth in comparison with the control group [5, 6]: 46%; Cmax ([1]; IP, 5 mg/Kg): 1040 ng/mL; half-life ([1]; IP, 5 mg/Kg): 44 min; Cmax ([1]; PO, 5 mg/Kg): 564 ng/mL; half-life ([1]; PO, 5 mg/Kg): 58 min; IC50 (Smo receptors): 93 nM
3 | Cc1ccn2cc(-c3cccc(NC(=O)c4sc(-c5ccccc5)nc4C)c3)nc2c1 [III-1017, 4-Methyl-2-phenylthiazol-5-carboxylic acid [3-(7-methylimidazo[1,2-a]pyridin-2-yl)phenyl]amide] | 19% | > 200 mg/kg | < 500 nM |  | Suppression of tumour growth in comparison with the control group [5, 6]: 27%; Cmax ([1]; IP, 5 mg/Kg): 357 ng/mL; half-life ([1]; IP, 5 mg/Kg): 67 min; Cmax ([1]; PO, 5 mg/Kg): 398 ng/mL; half-life ([1]; PO, 5 mg/Kg): 55 min
4 | Cc1cccn2cc(-c3ccc(NC(=O)c4ccccc4Br)cc3)nc12 [III-1029, N-[4-(8-Methylimidazo[1,2-a]pyridin-2-yl)phenyl]-2-bromobenzamide] | 75% | > 200 mg/kg | < 500 nM |  | Suppression of tumour growth in comparison with the control group ([5]; peroral 50 mg/kg, daily during 14 days): 67%; half-life ([1]; PO, dose not given): 59 min; Suppression of Gli1 expression (HGli mRNA) [4]: block effectively Hh-signalling cascade; IC50 (Smo receptors): 259 nM
5 | CN1CCN(C(=O)C2CCN(C(=O)c3cc4sccc4n3Cc3ccc(Cl)cc3)CC2)CC1 [V-1017, [4-(4-Chlorobenzyl)-4H-thieno[3,2-b]pyrrol-5-yl][4-(4-methylpiperazine-1-carbonyl)-piperidin-1-yl]methanone] | 63% | > 200 mg/kg |  |  | Cmax ([1]; IP, 5 mg/Kg): 289 ng/mL; half-life ([1]; IP, 5 mg/Kg): 68 min; Cmax ([1]; PO, 20 mg/Kg): 758 ng/mL; half-life ([1]; PO, 20 mg/Kg): 137 min; IC50 (Smo receptors): 40 nM
6 | O=C(c1cc2sccc2n1Cc1ccc(Cl)cc1)N1CCC(C(=O)N2CCCCCC2)CC1 [V-1043, 1-[4-(4-Chlorobenzyl)-4H-thieno[3,2-b]pyrrole-5-carbonyl]piperidine-4-carboxylic acid hexamethylene amide] | 3% | > 200 mg/kg | < 5000 nM |  | Cmax ([1]; IP, 5 mg/Kg): 167 ng/mL; half-life ([1]; IP, 5 mg/Kg): 64 min; Cmax ([1]; PO, 5 mg/Kg): 71 ng/mL; IC50 (Smo receptors): 69 nM
7 | CCOc1ccc(NC(=O)c2ccnc(N3CCC(C(=O)NCCCc4ccccc4)CC3)c2)cc1 [VI-1001, 3,4,5,6-Tetrahydro-2H-[1,2]bipyridinyl-4,4′-carboxylic acid 4′-[(4-ethoxyphenyl)amide] 4-[(3-phenylpropyl)amide]] |  |  | < 500 nM | 203 to 205 °C | 
8 | CCOc1ccc(NC(=O)c2ccnc(N3CCC(C(=O)Nc4ccc(C)c(C)c4)CC3)c2)cc1 [VI-1002, 3,4,5,6-Tetrahydro-2H-[1,2′]bipyridinyl-4,4′-carboxylic acid 4-[(3,4-dimethylphenyl)amide] 4′-[(4-ethoxyphenyl)amide]] |  |  | < 5000 nM | 235 to 237 °C | 
9 | CCOc1ccc(NC(=O)c2ccnc(N3CCC(C(=O)Nc4cc(C)cc(C)c4)CC3)c2)cc1 [VI-1003, 3,4,5,6-Tetrahydro-2H-[1,2′]bipyridinyl-4,4′-carboxylic acid 4-[(3,5-dimethylphenyl)amide] 4′-[(4-ethoxyphenyl)amide]] |  |  | < 5000 nM | 250 to 252 °C | 
10 | CCOc1ccc(NC(=O)c2ccnc(N3CCC(C(=O)Nc4cccc(SC)c4)CC3)c2)cc1 [VI-1004] |  |  | < 5000 nM | 200 to 202 °C | 
11 | CCOc1ccc(NC(=O)c2ccnc(N3CCC(C(=O)Nc4ccc(C(C)C)cc4)CC3)c2)cc1 [VI-1005, 3,4,5,6-Tetrahydro-2H-[1,2′]bipyridinyl-4,4′-carboxylic acid 4′-[(4-ethoxyphenyl)amide] 4-[(4-isopropylphenyl)amide]] |  |  | < 5000 nM | 243 to 245 °C | 
12 | CCOc1ccc(NC(=O)c2ccnc(N3CCC(C(=O)Nc4ccccc4OC)CC3)c2)cc1 [VI-1006, 3,4,5,6-Tetrahydro-2H-[1,2′]bipyridinyl-4,4′-carboxylic acid 4′-[(4-ethoxyphenyl)amide] 4-[(2-methoxyphenyl)amide]] |  |  | < 5000 nM | 182 to 184 °C | 
13 | Cc1ccc(S(=O)(=O)N2CCCc3cc(C(=O)Nc4c(C)cc(C)cc4C)ccc32)cc1 [VII-1001, 1-Tosyl-1,2,3,4-tetrahydroquinoline-6-carboxylic acid (2,4,6-mesityl)amide] |  |  | < 500 nM | 252 to 255 °C | Suppression of Gli1 expression (HGli mRNA) [4]: block effectively Hh-signalling cascade
14 | CN1CCc2c(sc(NC(=O)C3CCCCC3)c2-c2nc3ccccc3s2)C1.Cl [VIII-1001, Cyclohexanecarboxylic acid (3-benzo[d]thiazol-2-yl-6-methyl-4,5,6,7-tetrahydrothieno[2,3-c]pyridin-2-yl)amide] |  | > 100 mg/kg | < 500 nM |  | Cmax ([1]; IP, 100 mg/Kg): 45 ng/mL; half-life ([1]; IP, 100 mg/Kg): 294 min

From patent US8486945B2, “Heterocyclic inhibitors of an Hh-signal cascade, medicinal compositions based thereon and methods for treating diseases caused by the aberrant activity of an Hh-signal system” (priority 2007, dated 2013)
